Test results published in US20090304692A1, “TRIAZINE COMPOUNDS AS PI3 KINASE AND MTOR INHIBITORS” (Wyeth, priority 2008, published 2009).
“And” between values parts separate entries of the source, which are not always exact repeats. Identical values can stand only once. Like-named read-outs stand apart in the source and are kept apart here.

What was measured:
PI3K-α = PI3K-α (Homo sapiens, UniProt P42336); experiment: PI3K-alpha fluorescence polarization assay; conditions: read-out: IC50 PI3Kα
[1] = system: human prostate LNCap tumor cell line; experiment: In vitro cell culture growth assay (MTS), LNCap; conditions: read-out: IC50 LNCap
Human mTOR (FLAG-TOR) = Human mTOR (FLAG-TOR) (Homo sapiens, UniProt P42345); experiment: mTOR kinase assay (DELFIA format, purified enzyme); format: biochemical; conditions: read-out: IC50 mTOR
PI3K-γ = PI3K-γ (Homo sapiens, UniProt P48736); experiment: PI3K-gamma fluorescence polarization assay
PI3K-γ, sequence (P48736 whole entry, species assumed): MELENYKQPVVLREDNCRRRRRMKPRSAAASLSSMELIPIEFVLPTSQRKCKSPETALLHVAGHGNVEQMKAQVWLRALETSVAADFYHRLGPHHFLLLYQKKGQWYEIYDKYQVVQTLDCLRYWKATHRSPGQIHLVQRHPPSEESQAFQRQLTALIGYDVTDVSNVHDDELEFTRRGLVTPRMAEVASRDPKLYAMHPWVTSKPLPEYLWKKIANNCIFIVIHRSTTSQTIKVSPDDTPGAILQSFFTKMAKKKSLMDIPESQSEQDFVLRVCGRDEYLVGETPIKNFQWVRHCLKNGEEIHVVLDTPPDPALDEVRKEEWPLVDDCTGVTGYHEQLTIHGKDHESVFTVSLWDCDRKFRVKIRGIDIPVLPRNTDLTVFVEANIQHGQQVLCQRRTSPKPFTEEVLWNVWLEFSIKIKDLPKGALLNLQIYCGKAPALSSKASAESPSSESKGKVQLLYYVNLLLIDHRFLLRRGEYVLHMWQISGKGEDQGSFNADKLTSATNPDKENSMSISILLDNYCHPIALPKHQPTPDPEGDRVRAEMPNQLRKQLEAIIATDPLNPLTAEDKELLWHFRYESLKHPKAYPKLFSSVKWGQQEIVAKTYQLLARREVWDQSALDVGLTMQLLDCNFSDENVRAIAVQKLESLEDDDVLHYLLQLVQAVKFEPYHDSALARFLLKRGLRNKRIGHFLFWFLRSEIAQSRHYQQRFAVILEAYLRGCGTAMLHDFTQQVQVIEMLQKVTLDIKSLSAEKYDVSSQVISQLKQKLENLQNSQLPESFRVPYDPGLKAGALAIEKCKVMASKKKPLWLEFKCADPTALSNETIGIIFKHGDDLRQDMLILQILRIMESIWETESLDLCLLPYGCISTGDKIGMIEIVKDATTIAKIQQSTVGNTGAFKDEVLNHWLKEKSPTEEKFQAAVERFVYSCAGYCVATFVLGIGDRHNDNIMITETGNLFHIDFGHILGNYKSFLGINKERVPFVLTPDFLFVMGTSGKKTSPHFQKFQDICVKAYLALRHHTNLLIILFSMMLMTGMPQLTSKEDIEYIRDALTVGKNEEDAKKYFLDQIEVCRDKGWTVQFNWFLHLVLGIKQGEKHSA

Human mTOR (FLAG-TOR), sequence (P42345 1360-2549 limits assumed): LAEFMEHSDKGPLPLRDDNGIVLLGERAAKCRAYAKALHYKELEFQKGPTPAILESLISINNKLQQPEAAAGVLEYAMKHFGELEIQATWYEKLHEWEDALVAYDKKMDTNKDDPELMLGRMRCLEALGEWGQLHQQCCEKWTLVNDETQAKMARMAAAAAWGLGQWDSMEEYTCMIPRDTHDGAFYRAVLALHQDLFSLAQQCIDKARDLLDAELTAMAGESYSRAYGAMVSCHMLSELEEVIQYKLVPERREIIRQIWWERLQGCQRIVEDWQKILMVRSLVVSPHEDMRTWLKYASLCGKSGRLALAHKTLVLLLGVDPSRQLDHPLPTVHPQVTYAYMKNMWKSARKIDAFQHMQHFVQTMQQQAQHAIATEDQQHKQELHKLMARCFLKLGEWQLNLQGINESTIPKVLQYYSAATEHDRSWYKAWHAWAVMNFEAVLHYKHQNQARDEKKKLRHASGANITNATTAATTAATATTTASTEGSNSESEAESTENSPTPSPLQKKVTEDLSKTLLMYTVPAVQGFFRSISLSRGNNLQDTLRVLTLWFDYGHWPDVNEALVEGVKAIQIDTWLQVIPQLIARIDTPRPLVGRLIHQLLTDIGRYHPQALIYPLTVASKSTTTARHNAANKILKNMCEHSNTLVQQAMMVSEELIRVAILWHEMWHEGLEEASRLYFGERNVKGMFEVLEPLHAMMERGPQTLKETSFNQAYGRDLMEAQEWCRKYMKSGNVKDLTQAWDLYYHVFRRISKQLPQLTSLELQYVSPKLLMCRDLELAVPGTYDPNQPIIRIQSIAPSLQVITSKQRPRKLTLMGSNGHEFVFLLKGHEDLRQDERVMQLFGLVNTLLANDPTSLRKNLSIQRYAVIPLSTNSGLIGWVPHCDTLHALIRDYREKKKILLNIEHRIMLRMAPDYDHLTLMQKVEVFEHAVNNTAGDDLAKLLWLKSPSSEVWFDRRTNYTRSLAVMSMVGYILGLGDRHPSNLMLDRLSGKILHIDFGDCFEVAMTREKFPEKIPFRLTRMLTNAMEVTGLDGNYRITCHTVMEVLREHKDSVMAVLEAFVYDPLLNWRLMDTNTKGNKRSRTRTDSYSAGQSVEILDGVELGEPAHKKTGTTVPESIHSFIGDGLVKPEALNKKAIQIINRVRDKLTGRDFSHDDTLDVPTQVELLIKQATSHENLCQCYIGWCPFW
PI3K-α, sequence (P42336 whole entry, species assumed): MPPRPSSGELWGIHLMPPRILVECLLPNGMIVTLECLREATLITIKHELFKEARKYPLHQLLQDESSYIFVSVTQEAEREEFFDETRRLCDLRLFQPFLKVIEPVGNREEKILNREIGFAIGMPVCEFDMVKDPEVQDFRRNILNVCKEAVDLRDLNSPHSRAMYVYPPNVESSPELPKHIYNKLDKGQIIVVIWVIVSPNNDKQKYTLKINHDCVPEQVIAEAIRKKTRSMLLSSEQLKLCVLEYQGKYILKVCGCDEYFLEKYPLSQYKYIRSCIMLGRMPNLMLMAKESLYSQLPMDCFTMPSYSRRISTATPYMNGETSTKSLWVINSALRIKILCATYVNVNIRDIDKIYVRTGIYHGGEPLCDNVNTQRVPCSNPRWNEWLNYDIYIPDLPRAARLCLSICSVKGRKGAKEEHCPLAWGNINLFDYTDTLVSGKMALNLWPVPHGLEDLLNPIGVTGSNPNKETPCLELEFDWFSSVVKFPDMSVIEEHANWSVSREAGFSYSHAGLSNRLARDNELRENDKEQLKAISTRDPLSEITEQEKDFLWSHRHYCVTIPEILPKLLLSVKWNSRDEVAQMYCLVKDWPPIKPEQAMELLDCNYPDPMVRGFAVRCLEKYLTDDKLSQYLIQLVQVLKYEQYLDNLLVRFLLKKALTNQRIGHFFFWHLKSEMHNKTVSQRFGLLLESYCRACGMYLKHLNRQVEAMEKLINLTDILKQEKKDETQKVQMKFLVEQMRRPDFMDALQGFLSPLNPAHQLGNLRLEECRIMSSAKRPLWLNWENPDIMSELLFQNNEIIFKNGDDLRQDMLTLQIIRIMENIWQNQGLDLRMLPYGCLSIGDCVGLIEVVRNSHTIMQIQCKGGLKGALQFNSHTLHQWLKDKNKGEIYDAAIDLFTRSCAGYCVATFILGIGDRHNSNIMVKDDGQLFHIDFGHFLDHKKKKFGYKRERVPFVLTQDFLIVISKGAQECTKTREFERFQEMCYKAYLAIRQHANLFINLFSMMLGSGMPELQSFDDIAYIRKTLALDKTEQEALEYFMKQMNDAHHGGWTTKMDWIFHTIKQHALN
PI3K-α, sequence (P27986 whole entry partner, species assumed): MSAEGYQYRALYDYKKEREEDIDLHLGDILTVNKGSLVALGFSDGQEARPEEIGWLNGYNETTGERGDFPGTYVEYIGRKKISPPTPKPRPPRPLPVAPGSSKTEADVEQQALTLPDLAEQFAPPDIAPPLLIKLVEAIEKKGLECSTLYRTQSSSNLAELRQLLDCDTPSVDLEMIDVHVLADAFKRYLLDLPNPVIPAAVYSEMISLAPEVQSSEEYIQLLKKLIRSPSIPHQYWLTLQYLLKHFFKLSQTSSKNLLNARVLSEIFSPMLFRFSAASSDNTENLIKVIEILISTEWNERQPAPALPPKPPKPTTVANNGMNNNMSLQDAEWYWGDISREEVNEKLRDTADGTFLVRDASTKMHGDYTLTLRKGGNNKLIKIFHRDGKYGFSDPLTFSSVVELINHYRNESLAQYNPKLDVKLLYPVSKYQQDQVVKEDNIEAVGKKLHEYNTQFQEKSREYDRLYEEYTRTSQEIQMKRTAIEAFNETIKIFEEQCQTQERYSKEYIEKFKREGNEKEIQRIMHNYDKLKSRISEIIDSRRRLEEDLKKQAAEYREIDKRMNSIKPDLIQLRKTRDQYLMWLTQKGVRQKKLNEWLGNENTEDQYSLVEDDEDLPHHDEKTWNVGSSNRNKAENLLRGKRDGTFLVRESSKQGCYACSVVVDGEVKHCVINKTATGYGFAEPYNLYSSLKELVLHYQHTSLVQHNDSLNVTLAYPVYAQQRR

| Compound | IC50 (PI3K-α) | IC50 ([1]; Homo sapiens, LNCaP, 72 h) | IC50 (Human mTOR (FLAG-TOR)) | IC50 (PI3K-γ) | IC50 (PI3K-γ; read-out: IC50 PI3Kγ) | IC50 ([1]; MTS cell growth assay, three days after drug treatment) |
| --- | --- | --- | --- | --- | --- | --- |
| C[C@@H]1COCCN1c1nc(-c2ccc(NC(=O)Nc3ccc(CN4CCN(C)CC4)cc3)cc2)nc(N2C[C@@H]3C[C@H]2CO3)n1 [Example 413, 1-(4-(4-((1S,4S)-2-oxa-5-azabicyclo[2.2.1]heptan-5-yl)-6-((R)-3-methylmorpholino)-1,3,5-triazin-2-yl)phenyl)-3-(4-((4-methylpiperazin-1-yl)methyl)phenyl)urea] | 1.52 µM | 0.15 µM | 0.0092 µM | > 10 µM |  |  |
| C[C@@H]1COCCN1c1nc(-c2ccc(NC(=O)Nc3ccc(OCCN4CCCC4)cc3)cc2)nc(N2CCOC[C@H]2C)n1 [Example 403, 1-(4-(4,6-bis((R)-3-methylmorpholino)-1,3,5-triazin-2-yl)phenyl)-3-(4-(2-(pyrrolidin-1-yl)ethoxy)phenyl)urea] | 0.314 µM | 0.008 µM | 0.00075 µM |  | 2.38 µM |  |
| COC(=O)N1CCN(c2nc(-c3ccc(NC(=O)Nc4ccncc4)cc3)nc(N3CC4CCC(C3)O4)n2)CC1 [Example 114, Methyl 4-[4-(8-oxa-3-azabicyclo[3.2.1]oct-3-yl)-6-{4-[(pyridin-4-ylcarbamoyl)amino]phenyl}-1,3,5-triazin-2-yl]piperazine-1-carboxylate] | 0.106 µM | 0.038 µM | 0.00315 µM |  | 1.18 µM |  |
| CC(C)N(C)c1nc(-c2ccc(NC(=O)Nc3ccc(OCCN(C)C)cc3)cc2)nc(N2C3CCC2COC3)n1 [Example 391, 1-(4-(4-(3-oxa-8-azabicyclo[3.2.1]octan-8-yl)-6-(isopropyl(methyl)amino)-1,3,5-triazin-2-yl)phenyl)-3-(4-(2-(dimethylamino)ethoxy)phenyl)urea] | 2.4 µM | 0.3 µM | 0.0096 µM |  | 4 µM |  |
| CN1CCN(c2ccc(Nc3nc(-c4ccc(NC(=O)NCCF)cc4)nc(N4CC5CCC(C4)O5)n3)cc2)CC1 [Example 315, 1-(2-fluoroethyl)-3-{4-[4-{[4-(4-methylpiperazin-1-yl)phenyl]amino}-6-(8-oxa-3-azabicyclo[3.2.1]oct-3-yl)-1,3,5-triazin-2-yl]phenyl}urea] | 1.1 µM | 0.3 µM | 0.005 µM and 0.0058 µM |  | 7.9 µM |  |
| C[C@@H]1COCCN1c1nc(-c2ccc(NC(=O)Nc3ccc(N4CCN(C)CC4)nc3)cc2)nc(N2C3CCC2COC3)n1 [Example 446, 1-(4-(4-(3-oxa-8-azabicyclo[3.2.1]octan-8-yl)-6-((R)-3-methylmorpholino)-1,3,5-triazin-2-yl)phenyl)-3-(6-(4-methylpiperazin-1-yl)pyridin-3-yl)urea] | 0.835 µM | 0.015 µM | 0.00082 µM |  | 4.01 µM |  |
| CC(C)Oc1nc(-c2ccc(NC(=O)Nc3ccncc3)cc2)nc(N2CC3CCC(C2)O3)n1 [Example 158, 1-{4-[4-isopropoxy-6-(8-oxa-3-azabicyclo[3.2.1]oct-3-yl)-1,3,5-triazin-2-yl]phenyl}-3-pyridin-4-ylurea] | 0.3 µM | 0.049 µM | 0.007 µM |  | 1.29 µM |  |
| 1-(4-(4-(3-oxa-8-azabicyclo[3.2.1]octan-8-yl)-6-(piperidin-4-ylamino)-1,3,5-triazin-2-yl)phenyl)-3-ethylurea [Example 362] | 3.09 µM |  | 0.00074 µM |  | > 10 µM | 0.001 µM |
| C[C@@H]1COCCN1c1nc(-c2ccc(NC(=O)Nc3ccc(N4CCN(C)CC4)cc3)cc2)nc(N2C[C@@H]3C[C@H]2CO3)n1 [Example 412, 1-(4-(4-((1S,4S)-2-oxa-5-azabicyclo[2.2.1]heptan-5-yl)-6-((R)-3-methylmorpholino)-1,3,5-triazin-2-yl)phenyl)-3-(4-(4-methylpiperazin-1-yl)phenyl)urea] | 1.23 µM | 0.025 µM | 0.0073 µM |  | 7.48 µM |  |
| CCNC(=O)Nc1ccc(-c2nc(N3CC4CCC(C3)O4)nc(N3CC4CCC(C3)O4)n2)cc1 [Example 29, 1-[4-(4,6-di-8-oxa-3-azabicyclo[3.2.1]oct-3-yl-1,3,5-triazin-2-yl)phenyl]-3-ethylurea] | 2.69 µM | 0.18 µM | 0.0028 µM | > 10 µM |  |  |
| CN(C)CC(=O)Nc1ccc(NC(=O)Nc2ccc(-c3nc(N4CC5CCC(C4)O5)nc(N4CC5CCC(C4)O5)n3)cc2)cc1 [Example 352, N-[4-({[4-(4,6-di-8-oxa-3-azabicyclo[3.2.1]oct-3-yl-1,3,5-triazin-2-yl)phenyl]carbamoyl}amino)phenyl]-N2,N2-dimethylglycinnamide] | 0.0135 µM | < 0.0008 µM | 0.00024 µM |  | 0.732 µM |  |
| O=C(Nc1ccncc1)Nc1ccc(-c2nc(N3CCC(NCCN4CCOCC4)CC3)nc(N3CC4CCC(C3)O4)n2)cc1 [Example 124, 1-(4-(4-(8-oxa-3-azabicyclo[3.2.1]octan-3-yl)-6-(4-(2-morpholinoethylamino)piperidin-1-yl)-1,3,5-triazin-2-yl)phenyl)-3-(pyridin-4-yl)urea] | 1.65 µM | 1.95 µM | 0.155 µM |  | 9.65 µM |  |
| CC(C)Oc1nc(-c2ccc(NC(=O)Nc3ccc(N4CCN(C)CC4)cc3)cc2)nc(N2CC3CCC(C2)O3)n1 [Example 159, 1-{4-[4-isopropoxy-6-(8-oxa-3-azabicyclo[3.2.1]oct-3-yl)-1,3,5-triazin-2-yl]phenyl}-3-[4-(4-methylpiperazin-1-yl)phenyl]urea] | 0.133 µM | 0.0012 µM | 0.002 µM |  | 3.92 µM |  |
| COC(=O)Nc1ccc(-c2nc(-c3ccc(NC(=O)Nc4ccc(N5CCN(C)CC5)cc4)cc3)nc(N3CC4CCC(C3)O4)n2)cc1 [Example 145, methyl(4-{4-[4-({[4-(4-methylpiperazin-1-yl)phenyl]carbamoyl}amino)phenyl]-6-(8-oxa-3-azabicyclo[3.2.1]oct-3-yl)-1,3,5-triazin-2-yl}phenyl)carbamate] | 0.574 µM | 0.12 µM | 0.009 µM |  | 1 µM |  |
| O=C(Nc1ccncc1)Nc1ccc(-c2nc(N3CC4CCC(C3)O4)nc(N3[C@H](CO)CC[C@@H]3CO)n2)cc1 [Example 667, 1-(4-{4-[(2R,5S)-2,5-bis(hydroxymethyl)pyrrolidin-1-yl]-6-(8-oxa-3-azabicyclo[3.2.1]oct-3-yl)-1,3,5-triazin-2-yl}phenyl)-3-pyridin-4-ylurea] | 0.102 µM | 0.06 µM | 0.000405 µM |  | 1.08 µM |  |
| NCCCCOc1nc(-c2ccc(NC(=O)Nc3cccnc3)cc2)nc(N2CC3CCC(C2)O3)n1 [Example 181, 1-{4-[4-(4-aminobutoxy)-6-(8-oxa-3-azabicyclo[3.2.1]oct-3-yl)-1,3,5-triazin-2-yl]phenyl}-3-pyridin-3-ylurea] | 0.426 µM | 3.4 µM | 0.011 µM |  | 6.73 µM |  |
| C[C@@H]1COCCN1c1nc(-c2ccc(NC(=O)Nc3ccncc3)cc2)nc(N2C[C@@H]3C[C@H]2CO3)n1 [Example 410, 1-(4-(4-((1S,4S)-2-oxa-5-azabicyclo[2.2.1]heptan-5-yl)-6-((R)-3-methylmorpholino)-1,3,5-triazin-2-yl)phenyl)-3-(pyridin-4-yl)urea] | 0.826 µM | 0.11 µM | 0.0023 µM |  | 5.68 µM |  |
| CC(C)Nc1nc(-c2ccc(NC(=O)Nc3ccc(N4CCNCC4)cc3)cc2)nc(N2C3CCC2COC3)n1 [Example 387, 1-(4-(4-(3-oxa-8-azabicyclo[3.2.1]octan-8-yl)-6-(isopropylamino)-1,3,5-triazin-2-yl)phenyl)-3-(4-(piperazin-1-yl)phenyl)urea] | 3.42 µM | 0.07 µM | 0.0032 µM |  | 2.86 µM |  |
| CN(C)CC(=O)Nc1ccc(NC(=O)Nc2ccc(-c3nc(N4C5CCC4COC5)nc(N4C5CCC4COC5)n3)cc2)cc1 [Example 373, N-(4-(3-(4-(4,6-di(3-oxa-8-azabicyclo[3.2.1]octan-8-yl)-1,3,5-triazin-2-yl)phenyl)ureido)phenyl)-2-(dimethylamino)acetamide] | 0.07 µM | 0.001 µM | 0.00016 µM |  | 2.96 µM |  |
| O=C(Nc1ccncc1)Nc1ccc(-c2nc(Cl)nc(N3CC4CCC(C3)O4)n2)cc1 [Example 160, 1-{4-[4-chloro-6-(8-oxa-3-azabicyclo[3.2.1]oct-3-yl)-1,3,5-triazin-2-yl]phenyl}-3-pyridin-4-ylurea] | 0.358 µM | 0.22 µM | 0.007 µM |  | 9.07 µM |  |
| C[C@@H]1COCCN1c1nc(-c2ccc(NC(=O)Nc3ccc(C(=O)N4CCN(C)CC4)cc3)cc2)nc(C2CCOCC2)n1 [Example 431, (R)-1-(4-(4-(3-methylmorpholino)-6-(tetrahydro-2H-pyran-4-yl)-1,3,5-triazin-2-yl)phenyl)-3-(4-(4-methylpiperazine-1-carbonyl)phenyl)urea] | 0.043 µM | < 0.0008 µM | 0.001 µM |  | 0.34 µM |  |
| CN1CCN(c2ccc(NC(=O)Nc3ccc(-c4nc(N5CC6CCC(C5)O6)nc(N5CC6CCC(C5)O6)n4)cc3)cc2)CC1 [Example 28, 1-[4-(4,6-di-8-oxa-3-azabicyclo[3.2.1]oct-3-yl-1,3,5-triazin-2-yl)phenyl]-3-[4-(4-methylpiperazin-1-yl)phenyl]urea] | 0.054 µM | 0.0024 µM | 0.00095 µM |  | 5.55 µM |  |
| CC(C)Nc1nc(-c2ccc(NC(=O)Nc3ccc(OCCN(C)C)cc3)cc2)nc(N2CC3CCC(C2)O3)n1 [Example 220, 1-{4-[2-(dimethylamino)ethoxy]phenyl}-3-(4-{4-[(1-methylethyl)amino]-6-(8-oxa-3-azabicyclo[3.2.1]oct-3-yl)-1,3,5-triazin-2-yl}phenyl)urea] | 0.275 µM | 0.04 µM | 0.0035 µM |  | 2.83 µM |  |
